In patent US9957264B2 (Merck Sharp & Dohme Corp., priority 2013, dated 2018):

Experiments:
[1] = target: JAK1 (recombinant purified GST-tagged catalytic domain) (Homo sapiens (Human), UniProt P23458); assay: Jak Biochemical HTRF Assay (JAK1); conditions: [ATP] 31.8 μM
Procedure, shortened: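 HTRF format, biotinylated peptide substrate; ATP-initiated reaction 120 min RT; EDTA quench + streptavidin-Dylight 650/Eu-anti-pY20 detection, 60 min RT; signal = 665/615 ratio ×10,000; normalized % inhibition, 4-parameter fit → IC50.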

[2] = target: JAK2 (recombinant purified GST-tagged catalytic domain) (Homo sapiens (Human), UniProt O60674); assay: Jak Biochemical HTRF Assay (JAK2); conditions: [ATP] 8.5 μM
Sequence of JAK2 (recombinant purified GST-tagged catalytic domain) (O60674 849-1124): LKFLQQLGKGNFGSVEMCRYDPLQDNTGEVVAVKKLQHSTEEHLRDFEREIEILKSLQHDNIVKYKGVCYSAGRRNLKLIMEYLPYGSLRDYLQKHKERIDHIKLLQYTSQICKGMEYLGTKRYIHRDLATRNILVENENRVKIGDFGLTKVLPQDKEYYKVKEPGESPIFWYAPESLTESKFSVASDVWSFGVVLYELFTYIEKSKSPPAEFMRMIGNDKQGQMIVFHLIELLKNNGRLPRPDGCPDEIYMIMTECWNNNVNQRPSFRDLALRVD

Sequence of JAK1 (recombinant purified GST-tagged catalytic domain) (P23458 875-1153): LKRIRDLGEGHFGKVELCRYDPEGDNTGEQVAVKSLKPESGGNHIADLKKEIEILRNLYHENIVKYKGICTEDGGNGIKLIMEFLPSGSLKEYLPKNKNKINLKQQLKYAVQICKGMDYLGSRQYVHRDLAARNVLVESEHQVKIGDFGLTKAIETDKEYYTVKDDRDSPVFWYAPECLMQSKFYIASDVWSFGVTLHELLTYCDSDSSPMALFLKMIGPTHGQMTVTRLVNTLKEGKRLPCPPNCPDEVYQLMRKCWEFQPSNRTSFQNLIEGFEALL

| IC50 [1] | IC50 [2] | Structure (SMILES) |
| --- | --- | --- |
| 1.14 nM | 4.81 nM | N#CCC1(n2nc(Nc3ccc([C@@H](O)C(F)(F)F)cc3)c3c(=O)[nH]ccc32)CCN(c2cc(C(F)(F)F)ccn2)CC1 (single isomer, unassigned) [Example 16-2, (R or S)-2-(4-(4-oxo-3-(4-(2,2,2-trifluoro-1-hydroxyethyl)phenylamino)-4,5-dihydropyrazolo[4,3-c]pyridin-1-yl)-1-(4-(trifluoromethyl)pyridin-2-yl)piperidin-4-yl)acetonitrile] |
| 0.19 nM | 0.86 nM | CN(C)S(=O)(=O)c1ccc(Nc2nn(C3(CC#N)CCN(C(=O)Oc4ccccc4)CC3)c3cc[nH]c(=O)c23)cc1 [Example 10-2, phenyl 4-(cyanomethyl)-4-(3-((4-(N,N-dimethylsulfamoyl)phenyl)amino)-4-oxo-4,5-dihydro-1H-pyrazolo[4,3-c]pyridin-1-yl)piperidine-1-carboxylate] |
| 16.1 nM | 211 nM | CN(C)[C@H]1CC[C@@](CC#N)(n2nc(Nc3ccc4c(c3)CN(C(C)(C)C)S4(=O)=O)c3c(=O)[nH]ccc32)CC1 [Example 18-38, Cis 2-(1-(3-((2-(tert-butyl)-1,1-dioxido-2,3-dihydrobenzo[d]isothiazol-5-yl)amino)-4-oxo-4,5-dihydro-1H-pyrazolo[4,3-c]pyridin-1-yl)-4-(dimethylamino)cyclohexyl)acetonitrile] |
| 125 nM | > 1500 nM | COC1CN([C@H]2CC[C@@](CC#N)(n3nc(Nc4ccc(Cl)c(F)c4)c4c(=O)[nH]ccc43)CC2)C1 [Example 18-23, Cis 2-(1-(3-((4-chloro-3-fluorophenyl)amino)-4-oxo-4,5-dihydro-1H-pyrazolo[4,3-c]pyridin-1-yl)-4-(3-methoxyazetidin-1-yl)cyclohexyl)acetonitrile] |
| 0.55 nM | 0.5 nM | CC(C)(C)OC(=O)N1CCC(CC#N)(n2nc(Nc3ccc([C@@]4(C(F)(F)F)CCCN4)cc3)c3c(=O)[nH]ccc32)CC1 (single isomer, unassigned) [Example 21-18, (R or S)-tert-butyl 4-(cyanomethyl)-4-(4-oxo-3-(4-(2-(trifluoromethyl)pyrrolidin-2-yl)phenylamino)-4,5-dihydropyrazolo[4,3-c]pyridin-1-yl)piperidine-1-carboxylate] |

Continued, molecule first:

| Structure (SMILES) | IC50 [1] | IC50 [2] |
| --- | --- | --- |
| CC(C)(C)S(=O)(=O)c1ccc(Nc2nn([C@]3(CC#N)CCCOC3)c3cc[nH]c(=O)c23)cc1 [Example 5-183, [(3S)-3-(3-{[4-(tert-butylsulfonyl)phenyl]amino}-4-oxo-4,5-dihydro-1H-pyrazolo[4,3-c]pyridin-1-yl)tetrahydro-2H-pyran-3-yl]acetonitrile] | 0.17 nM | 0.47 nM |
| CC(C)(C)OC(=O)N1CCC(CC#N)(n2nc(Nc3ccc(C4(C(F)(F)F)CCN(Cc5ccccc5)C4)cc3)c3c(=O)[nH]ccc32)CC1 (single isomer, unassigned) [Example 5-281, (S or R) tert-butyl 4-(3-((4-(1-benzyl-3-(trifluoromethyl)pyrrolidin-3-yl)phenyl)amino)-4-oxo-4,5-dihydro-1H-pyrazolo[4,3-c]pyridin-1-yl)-4-(cyanomethyl)piperidine-1-carboxylate] | 7.9 nM | 10 nM |
| CC(C)NC(c1ccc(Nc2nn([C@]3(CC#N)CCCOC3)c3cc[nH]c(=O)c23)cc1)C(F)(F)F (single isomer, unassigned) [Example 5-205, [(3S)-3-{4-oxo-3-[(4-{(1R or 1S)-2,2,2-trifluoro-1-[(1-methylethyl)amino]ethyl}phenyl)amino]-4,5-dihydro-1H-pyrazolo[4,3-c]pyridin-1-yl}tetrahydro-2H-pyran-3-yl]acetonitrile] | 0.17 nM | 0.2 nM |
| Cc1cc(Nc2nn([C@]3(CC#N)CCOC[C@@H]3F)c3cc[nH]c(=O)c23)ccc1C(=O)N1CCSCC1 (single isomer, unassigned) [Example 5-262, 2-((3R,4R or 3S,4S)-3-fluoro-4-(3-((3-methyl-4-(thiomorpholine-4-carbonyl)phenyl)amino)-4-oxo-4,5-dihydro-1H-pyrazolo[4,3-c]pyridin-1-yl)tetrahydro-2H-pyran-4-yl)acetonitrile] | 0.09 nM | 0.08 nM |
| CC(C)(C)NC(c1ccc(Nc2nn([C@]3(CC#N)CCCOC3)c3cc[nH]c(=O)c23)cc1)C(F)(F)F (single isomer, unassigned) [Example 5-190, {(3S)-3-[3-({4-[(1S or 1R)-1-(tert-butylamino)-2,2,2-trifluoroethyl]phenyl}amino)-4-oxo-4,5-dihydro-1H-pyrazolo [4,3-c]pyridin-1-yl]tetrahydro-2H-pyran-3-yl}acetonitrile] | 0.21 nM | 0.38 nM |
| CC(C)(C)OC(=O)N1CCC(CC#N)(n2nc(Nc3ccc(S(=O)(=O)N4CCOCC4)cc3)c3c(=O)[nH]ccc32)CC1 [Example 5-294, tert-butyl 4-(cyanomethyl)-4-(3-((4-(morpholinosulfonyl)phenyl)amino)-4-oxo-4,5-dihydro-1H-pyrazolo[4,3-c]pyridin-1-yl)piperidine-1-carboxylate] | 0.22 nM | 0.37 nM |
| CN(C)S(=O)(=O)c1ccc(Nc2nn(C3(CC#N)CCN(C(=O)C4Cc5ccccc5C4)CC3)c3cc[nH]c(=O)c23)cc1 [Example 9-18, 4-({1-[4-(cyanomethyl)-1-(2,3-dihydro-1H-inden-2-ylcarbonyl)piperidin-4-yl]-4-oxo-4,5-dihydro-1H-pyrazolo[4,3-c]pyridin-3-yl}amino)-N,N-dimethylbenzenesulfonamide] | 0.14 nM | 0.39 nM |
| CC(C)(C)OC(=O)N1CCC(CC#N)(n2nc(Nc3ccc(S(N)(=O)=O)cc3)c3c(=O)[nH]ccc32)CC1 [Example 5-4, tert-butyl 4-(cyanomethyl)-4-{4-oxo-3-[(4-sulfamoylphenyl)amino]-4,5-dihydro-1H-pyrazolo[4,3-c]pyridin-1-yl}piperidine-1-carboxylate] | 0.12 nM | 0.23 nM |
